In US9650340B2, “5-fluoro-N-(pyridin-2-yl)pyridin-2-amine derivatives containing a sulfoximine group” (BAYER PHARMA AKTIENGESELLSCHAFT, priority 2012, dated 2017):
Counter-ions that a name gives are not always drawn.

Legend:
CDK2/CycE = target: T1, CDK2/CycE (Homo sapiens, UniProt P24941); experiment: CDK2/CycE kinase assay (TR-FRET, 10 μM ATP); format: biochemical; details: Method 2 (2a)
T1 construct: GST; purchased ProQinase GmbH (Freiburg, Germany); host or cells: insect cells (Sf9)
Excerpt: 2a. CDK2/CycE Kinase Assay:
CDK2/CycE-inhibitory activity of compounds of the present invention was quantified employing the CDK2/CycE TR-FRET assay as described in the following paragraphs:
Recombinant fusion proteins of GST and human CDK2 and of GST and human CycE, expressed in insect cells (Sf9) and purified by Glutathion-Sepharose affinity chromatography, were purchased from ProQinase GmbH (Freiburg, Germany). As substrate for the kinase reaction biotinylated peptide biotin-Ttds-[…] (C-terminus in amid form) was used which can be purchased e.g. form the company JERINI Peptide Technologies (Berlin, Germany).
For the assay 50 nl of a 100 fold concentrated solution of the test compound in DMSO was pipetted into a black low volume 384 well microtiter plate (Greiner Bio-One, Frickenhausen, Germany), 2 μl of a solution of CDK2/CycE in aqueous assay buffer [50 mM Tris/HCl pH 8.0, 10 mM MgCl2, 1.0 mM dithiothreitol, 0.1 mM sodium ortho-vanadate, 0.01% (v/v) Nonidet-P40 (Sigma)] were added and the mixture was incubated for 15 min at 22° C. to allow pre-binding of the test compounds to the enzyme before the start of the kinase reaction. Then the kinase reaction was started by the addition of 3 μl of a solution of adenosine-tri-phosphate (ATP, 16.7 μM=>final conc. in the 5 μl assay volume is 10 μM) and substrate (1.25 μM=>final conc. in the 5 μl assay volume is 0.75 μM) in assay buffer and the resulting mixture was incubated for a reaction time of 25 min at 22° C. The concentration of CDK2/CycE was adjusted depending of the activity of the enzyme lot and was chosen appropriate to have the assay in the linear range, typical concentrations were in the range of 130 ng/mL The reaction was stopped by the addition of 5 μl of a solution of TR-FRET detection reagents (0.2 μM streptavidine-XL665 [Cisbio Bioassays, Codolet, France] and 1 nM anti-RB(pSer807/pSer811)-antibody from BD Pharmingen [#558389] and 1.2 nM LANCE EU-W1024 labeled anti-mouse IgG antibody [Perkin-Elmer, product no. AD0077]) in an aqueous EDTA-solution (100 mM EDTA, 0.2% (w/v) bovine serum albumin in 100 mM HEPES/NaOH pH 7.0).
The resulting mixture was incubated 1 h at 22° C. to allow the formation of complex between the phosphorylated biotinylated peptide and the detection reagents. Subsequently the amount of phosphorylated substrate was evaluated by measurement of the resonance energy transfer from the Eu-chelate to the streptavidine-XL. Therefore, the fluorescence emissions at 620 nm and 665 nm after excitation at 350 nm was measured in a TR-FRET reader, e.g. a Rubystar (BMG Labtechnologies, Offenburg, Germany) or a Viewlux (Perkin-Elmer). The ratio of the emissions at 665 nm and at 622 nm was taken as the measure for the amount of phosphorylated substrate.

[1] = system: HeLa, human cervical tumour cells; experiment: Proliferation assay, HeLa (crystal violet); format: cell-based; details: 4 days, read-out: Inhibition of HeLa cell proliferation IC50
Procedure: (§1) Cultivated tumour cells (HeLa, human cervical tumour cells, ATCC CCL-2; NCI-H460, human non-small cell lung carcinoma cells, ATCC HTB-177; A2780, human ovarian carcinoma cells, ECACC #93112519; DU 145, hormone-independent human prostate carcinoma cells, ATCC HTB-81; HeLa-MaTu-ADR, multidrug-resistant human cervical carcinoma cells, EPO-GmbH Berlin; Caco-2, human colorectal carcinoma cells, ATCC HTB-37; B16F10, mouse melanoma cells, ATCC CRL-6475) were plated at a density of 5,000 cells/well (DU145, HeLa-MaTu-ADR), 3,000 cells/well (NCI-H460, HeLa), 2,500 cells/well (A2780), 1,500 cells/well (Caco-2), or 1,000 cells/well (B16F10) in a 96-well multititer plate in 200 μL of their respective growth medium supplemented 10% fetal calf serum. After 24 hours, the cells of one plate (zero-point plate) were stained with crystal violet (see below), while the medium of the other plates was replaced by fresh culture medium (200 μl), to which the test substances were added in various concentrations (0 μM, as well as in the range of 0.001-10 μM; the final concentration of the solvent dimethyl sulfoxide was 0.5%). The cells were incubated for 4 days in the presence of test substances. Cell proliferation was determined by staining the cells with crystal violet: the cells were fixed by adding 20 μl/measuring point of an 11% glutaric aldehyde solution for 15 minutes at room temperature. After three washing cycles of the fixed cells with water, the plates were dried at room temperature. The cells were stained by adding 100 μl/measuring point of a 0.1% crystal violet solution (pH 3.0). After three washing cycles of the stained cells with water, the plates were dried at room temperature. The dye was dissolved by adding 100 μl/measuring point of a 10% acetic acid solution. The extinction was determined by photometry at a wavelength of 595 nm. The change of cell number, in percent, was calculated by normalization of the measured values to the extinction values of the zero-point plate (=0%) and the extinction of the untreated (0 μm) cells (=100%). The IC50 values (inhibitory concentration at 50% of maximal effect) were determined by means of a 4 parameter fit. Non-adherent MOLM-13 human acute myeloid leukemia cells (DSMZ ACC 554) were seeded at a density of 5,000 cells/well in a 96-well multititer plate in 100 μL of growth medium supplemented 10% fetal calf serum. After 24 hours, cell viability of one plate (zero-point plate) was determined with the Cell Titre-Glo Luminescent Cell Viability Assay (Promega), while 50 μL of test compound containing medium was added to the wells of the other plates (final concentrations in the range of 0.001-10 μM and DMSO controls; the final concentration of the solvent dimethyl sulfoxide was 0.5%). Cell viability was assessed after 72-hour exposure with the Cell Titre-Glo Luminescent Cell Viability Assay (Promega).

[2] = system: B16F10, mouse melanoma cells; experiment: Proliferation assay, B16F10 (crystal violet); format: cell-based; details: B16F10, 4 days; read-out: Inhibition of B16F10 cell proliferation IC50
Procedure: as §1

IC50 (CDK2/CycE) [nM] | IC50 [1] [nM] | IC50 [2] [nM] | Compound
98 | 110 | 110 | CCOc1cc(F)ccc1-c1cc(Nc2cc(CS(C)(=N)=O)cc(F)n2)ncc1F (single isomer, unassigned; (-)) [Example 29, (−)-4-(2-Ethoxy-4-fluorophenyl)-5-fluoro-N-{6-fluoro-4-[(S-methylsulfonimidoyl)methyl]pyridin-2-yl}pyridin-2-amine]
67 | 19 | 54 | COc1cc(F)ccc1-c1cc(Nc2cc(CS(C)(=N)=O)cc(C)n2)ncc1F (single isomer, unassigned; (-)) [Example 33, (−)-5-Fluoro-4-(4-fluoro-2-methoxyphenyl)-N-{6-methyl-4-[(S-methylsulfonimidoyl)methyl]pyridin-2-yl}pyridin-2-amine]
430 | 63 | 150 | COc1cc(F)ccc1-c1cc(Nc2cc(CS(C)(=N)=O)ccn2)ncc1F (single isomer, unassigned; enantiomer 1) [Example 16, 5-Fluoro-4-(4-fluoro-2-methoxyphenyl)-N-{4-[(S-methylsulfonimidoyl)methyl]pyridin-2-yl}pyridin-2-amine hydrochloride; enantiomer 1]
200 | 42 | 73 | COc1cc(F)ccc1-c1cc(Nc2cc(CS(C)(=N)=O)ccn2)ncc1F.Cl (single isomer, unassigned; enantiomer 2) [Example 14, 5-Fluoro-4-(4-fluoro-2-methoxyphenyl)-N-{4-[(S-methylsulfonimidoyl)methyl]pyridin-2-yl}pyridin-2-amine hydrochloride; enantiomer 2]
